# Data: ChEMBL document CHEMBL1833882, “Preparation and antibacterial evaluation of decarboxylated fluoroquinolones” (2011)
# Test system: Staphylococcus aureus
# Assay: Antibacterial activity against methicillin-resistant Staphylococcus aureus 1094 after 18 hrs by broth dilution method
# Assay type: functional
# Settings: Staphylococcus aureus, 1094, 18 h
row,SMILES,MIC
1,O=C(O)c1cn(C2CC2)c2cc(N3CCNCC3)c(F)cc2c1=O [CIPROFLOXACIN],20 µg/mL
2,CCN1CCN(c2cc3c(cc2F)c(=O)c(C(=O)O)cn3C2CC2)CC1 [ENROFLOXACIN],5 µg/mL
3,CCn1cc(C(=O)O)c(=O)c2cc(F)c(N3CCNCC3)cc21 [NORFLOXACIN],40 µg/mL

# Test system: Pseudomonas aeruginosa
# Assay: Antibacterial activity against Pseudomonas aeruginosa PAO1 harboring oprM deltamexAB after 18 hrs by broth dilution method
# Assay type: functional
# Settings: PAO1, 18 h
row,SMILES,MIC
1,O=C(O)c1cn(C2CC2)c2cc(N3CCNCC3)c(F)cc2c1=O [CIPROFLOXACIN],0.02 µg/mL
2,CCN1CCN(c2cc3c(cc2F)c(=O)c(C(=O)O)cn3C2CC2)CC1 [ENROFLOXACIN],0.078 µg/mL
3,CCn1cc(C(=O)O)c(=O)c2cc(F)c(N3CCNCC3)cc21 [NORFLOXACIN],0.039 µg/mL

# Test system: Pseudomonas aeruginosa
# Assay: Antibacterial activity against Pseudomonas aeruginosa PAO1 ATCC BAA-47 after 18 hrs by broth dilution method
# Assay type: functional
# Settings: PAO1 ATCC BAA-47, 18 h
row,SMILES,MIC
1,O=C(O)c1cn(C2CC2)c2cc(N3CCNCC3)c(F)cc2c1=O [CIPROFLOXACIN],0.313 µg/mL
2,CCN1CCN(c2cc3c(cc2F)c(=O)c(C(=O)O)cn3C2CC2)CC1 [ENROFLOXACIN],4.4 µg/mL
3,CCn1cc(C(=O)O)c(=O)c2cc(F)c(N3CCNCC3)cc21 [NORFLOXACIN],1.25 µg/mL

# Test system: Escherichia coli
# Assay: Antibacterial activity against Escherichia coli 700 expressing TolC after 18 hrs by broth dilution method
# Assay type: functional
# Settings: Escherichia coli, 700, 18 h
row,SMILES,MIC
1,CCN1CCN(c2cc3c(cc2F)c(=O)c(C(=O)O)cn3C2CC2)CC1 [ENROFLOXACIN],0.049 µg/mL
2,CCn1cc(C(=O)O)c(=O)c2cc(F)c(N3CCNCC3)cc21 [NORFLOXACIN],0.059 µg/mL

# Test system: Enterococcus faecalis
# Assay: Antibacterial activity against vancomycin-resistant Enterococcus faecalis ATCC 51575 after 18 hrs by broth dilution method
# Assay type: functional
# Settings: ATCC 51575, 18 h
row,SMILES,MIC
1,O=C(O)c1cn(C2CC2)c2cc(N3CCNCC3)c(F)cc2c1=O [CIPROFLOXACIN],0.625 µg/mL
2,CCN1CCN(c2cc3c(cc2F)c(=O)c(C(=O)O)cn3C2CC2)CC1 [ENROFLOXACIN],0.625 µg/mL
3,CCn1cc(C(=O)O)c(=O)c2cc(F)c(N3CCNCC3)cc21 [NORFLOXACIN],2.5 µg/mL

# Test system: Escherichia coli
# Assay: Antibacterial activity against TolC deficient Escherichia coli 701 after 18 hrs by broth dilution method
# Assay type: functional
# Settings: Escherichia coli, 701, 18 h
row,SMILES,MIC
1,CCN1CCN(c2cc3c(cc2F)c(=O)c(C(=O)O)cn3C2CC2)CC1 [ENROFLOXACIN],≤ 0.01 µg/mL
2,CCn1cc(C(=O)O)c(=O)c2cc(F)c(N3CCNCC3)cc21 [NORFLOXACIN],0.039 µg/mL

# Test system: Burkholderia cepacia
# Assay: Antibacterial activity against Burkholderia cepacia ATCC 39277 after 18 hrs by broth dilution method
# Assay type: functional
# Settings: ATCC 39277, 18 h
row,SMILES,MIC
1,O=C(O)c1cn(C2CC2)c2cc(N3CCNCC3)c(F)cc2c1=O [CIPROFLOXACIN],0.078 µg/mL
2,CCN1CCN(c2cc3c(cc2F)c(=O)c(C(=O)O)cn3C2CC2)CC1 [ENROFLOXACIN],0.098 µg/mL
3,CCn1cc(C(=O)O)c(=O)c2cc(F)c(N3CCNCC3)cc21 [NORFLOXACIN],1.25 µg/mL

# Test system: Stenotrophomonas maltophilia
# Assay: Antibacterial activity against Stenotrophomonas maltophilia ATCC 13637 after 18 hrs by broth dilution method
# Assay type: functional
# Settings: ATCC 13637, 18 h
row,SMILES,MIC
1,O=C(O)c1cn(C2CC2)c2cc(N3CCNCC3)c(F)cc2c1=O [CIPROFLOXACIN],0.156 µg/mL
2,CCN1CCN(c2cc3c(cc2F)c(=O)c(C(=O)O)cn3C2CC2)CC1 [ENROFLOXACIN],0.098 µg/mL
3,CCn1cc(C(=O)O)c(=O)c2cc(F)c(N3CCNCC3)cc21 [NORFLOXACIN],1.25 µg/mL

# Test system: Bacillus subtilis
# Assay: Antibacterial activity against Bacillus subtilis BD54 after 18 hrs by broth dilution method
# Assay type: functional
# Settings: BD54, 18 h
row,SMILES,MIC
1,O=C(O)c1cn(C2CC2)c2cc(N3CCNCC3)c(F)cc2c1=O [CIPROFLOXACIN],0.156 µg/mL
2,CCN1CCN(c2cc3c(cc2F)c(=O)c(C(=O)O)cn3C2CC2)CC1 [ENROFLOXACIN],0.078 µg/mL
3,CCn1cc(C(=O)O)c(=O)c2cc(F)c(N3CCNCC3)cc21 [NORFLOXACIN],0.625 µg/mL

# Test system: Staphylococcus aureus
# Assay: Antibacterial activity against Staphylococcus aureus ATCC 25923 after 18 hrs by broth dilution method
# Assay type: functional
# Settings: ATCC 25923, 18 h
row,SMILES,MIC
1,O=C(O)c1cn(C2CC2)c2cc(N3CCNCC3)c(F)cc2c1=O [CIPROFLOXACIN],0.625 µg/mL
2,CCN1CCN(c2cc3c(cc2F)c(=O)c(C(=O)O)cn3C2CC2)CC1 [ENROFLOXACIN],0.156 µg/mL
3,CCn1cc(C(=O)O)c(=O)c2cc(F)c(N3CCNCC3)cc21 [NORFLOXACIN],1.25 µg/mL

# Test system: Bacillus anthracis
# Assay: Antibacterial activity against Bacillus anthracis Sterne after 18 hrs by broth dilution method
# Assay type: functional
# Settings: not given
row,SMILES,MIC
1,CCN1CCN(c2cc3c(cc2F)c(=O)c(C(=O)O)cn3C2CC2)CC1 [ENROFLOXACIN],0.078 µg/mL
2,CCn1cc(C(=O)O)c(=O)c2cc(F)c(N3CCNCC3)cc21 [NORFLOXACIN],0.313 µg/mL

# Test system: Burkholderia cepacia
# Assay: Antibacterial activity against Burkholderia cepacia ATCC 55792 after 18 hrs by broth dilution method
# Assay type: functional
# Settings: ATCC 55792, 18 h
row,SMILES,MIC
1,O=C(O)c1cn(C2CC2)c2cc(N3CCNCC3)c(F)cc2c1=O [CIPROFLOXACIN],0.625 µg/mL
2,CCN1CCN(c2cc3c(cc2F)c(=O)c(C(=O)O)cn3C2CC2)CC1 [ENROFLOXACIN],0.625 µg/mL
3,CCn1cc(C(=O)O)c(=O)c2cc(F)c(N3CCNCC3)cc21 [NORFLOXACIN],2.5 µg/mL

# Test system: Staphylococcus aureus
# Assay: Antibacterial activity against Staphylococcus aureus ATCC 25923 after 16 to 18 hrs by agar dilution method
# Assay type: functional
# Settings: not given
row,SMILES,MIC
1,O=C(O)c1cn(C2CC2)c2cc(N3CCNCC3)c(F)cc2c1=O [CIPROFLOXACIN],0.5 µg/mL
2,CCN1CCN(c2cc3c(cc2F)c(=O)c(C(=O)O)cn3C2CC2)CC1 [ENROFLOXACIN],0.13 µg/mL
3,CCn1cc(C(=O)O)c(=O)c2cc(F)c(N3CCNCC3)cc21 [NORFLOXACIN],2 µg/mL

# Test system: Enterococcus faecalis
# Assay: Antibacterial activity against Enterococcus faecalis ATCC 29212 after 16 to 18 hrs by agar dilution method
# Assay type: functional
# Settings: not given
row,SMILES,MIC
1,O=C(O)c1cn(C2CC2)c2cc(N3CCNCC3)c(F)cc2c1=O [CIPROFLOXACIN],0.5 µg/mL
2,CCN1CCN(c2cc3c(cc2F)c(=O)c(C(=O)O)cn3C2CC2)CC1 [ENROFLOXACIN],0.13 µg/mL
3,CCn1cc(C(=O)O)c(=O)c2cc(F)c(N3CCNCC3)cc21 [NORFLOXACIN],2 µg/mL

# Test system: Escherichia coli
# Assay: Antibacterial activity against Escherichia coli ATCC 29425 after 18 hrs by broth dilution method
# Assay type: functional
# Settings: ATCC 29425, 18 h
row,SMILES,MIC
1,O=C(O)c1cn(C2CC2)c2cc(N3CCNCC3)c(F)cc2c1=O [CIPROFLOXACIN],< 0.02 µg/mL
2,CCN1CCN(c2cc3c(cc2F)c(=O)c(C(=O)O)cn3C2CC2)CC1 [ENROFLOXACIN],0.05 µg/mL
3,CCn1cc(C(=O)O)c(=O)c2cc(F)c(N3CCNCC3)cc21 [NORFLOXACIN],0.12 µg/mL

# Test system: Escherichia coli
# Assay: Antibacterial activity against Escherichia coli ATCC 29425 after 16 to 18 hrs by agar dilution method
# Assay type: functional
# Settings: not given
row,SMILES,MIC
1,O=C(O)c1cn(C2CC2)c2cc(N3CCNCC3)c(F)cc2c1=O [CIPROFLOXACIN],< 0.06 µg/mL
2,CCN1CCN(c2cc3c(cc2F)c(=O)c(C(=O)O)cn3C2CC2)CC1 [ENROFLOXACIN],< 0.06 µg/mL
3,CCn1cc(C(=O)O)c(=O)c2cc(F)c(N3CCNCC3)cc21 [NORFLOXACIN],0.01 µg/mL

# Test system: Klebsiella pneumoniae
# Assay: Antibacterial activity against Klebsiella pneumoniae ATCC 700603 after 18 hrs by broth dilution method
# Assay type: functional
# Settings: ATCC 700603, 18 h
row,SMILES,MIC
1,O=C(O)c1cn(C2CC2)c2cc(N3CCNCC3)c(F)cc2c1=O [CIPROFLOXACIN],0.313 µg/mL
2,CCN1CCN(c2cc3c(cc2F)c(=O)c(C(=O)O)cn3C2CC2)CC1 [ENROFLOXACIN],0.625 µg/mL
3,CCn1cc(C(=O)O)c(=O)c2cc(F)c(N3CCNCC3)cc21 [NORFLOXACIN],0.938 µg/mL

# Test system: Acinetobacter baumannii
# Assay: Antibacterial activity against Acinetobacter baumannii ATCC 19606 after 18 hrs by broth dilution method
# Assay type: functional
# Settings: ATCC 19606 = CIP 70.34 = JCM 6841, 18 h
row,SMILES,MIC
1,O=C(O)c1cn(C2CC2)c2cc(N3CCNCC3)c(F)cc2c1=O [CIPROFLOXACIN],1.25 µg/mL
2,CCN1CCN(c2cc3c(cc2F)c(=O)c(C(=O)O)cn3C2CC2)CC1 [ENROFLOXACIN],0.235 µg/mL
3,CCn1cc(C(=O)O)c(=O)c2cc(F)c(N3CCNCC3)cc21 [NORFLOXACIN],10 µg/mL

# Test system: Enterococcus faecalis
# Assay: Antibacterial activity against Enterococcus faecalis ATCC 29212 after 18 hrs by broth dilution method
# Assay type: functional
# Settings: ATCC 29212, 18 h
row,SMILES,MIC
1,O=C(O)c1cn(C2CC2)c2cc(N3CCNCC3)c(F)cc2c1=O [CIPROFLOXACIN],1.25 µg/mL
2,CCN1CCN(c2cc3c(cc2F)c(=O)c(C(=O)O)cn3C2CC2)CC1 [ENROFLOXACIN],0.625 µg/mL
3,CCn1cc(C(=O)O)c(=O)c2cc(F)c(N3CCNCC3)cc21 [NORFLOXACIN],2.5 µg/mL

# Test system: Klebsiella pneumoniae
# Assay: Antibacterial activity against Klebsiella pneumoniae ATCC 13882 after 18 hrs by broth dilution method
# Assay type: functional
# Settings: ATCC 13882, 18 h
row,SMILES,MIC
1,O=C(O)c1cn(C2CC2)c2cc(N3CCNCC3)c(F)cc2c1=O [CIPROFLOXACIN],0.039 µg/mL
2,CCN1CCN(c2cc3c(cc2F)c(=O)c(C(=O)O)cn3C2CC2)CC1 [ENROFLOXACIN],0.098 µg/mL
3,CCn1cc(C(=O)O)c(=O)c2cc(F)c(N3CCNCC3)cc21 [NORFLOXACIN],0.117 µg/mL
